According to EP2077260B1, “AMIDE COMPOUND OR SALT THEREOF, AND BIOFILM FORMATION INHIBITOR, BIOFILM REMOVER AND BACTERICIDE EACH USING THE AMIDE COMPOUND OR SALT THEREOF” (The University of Tokyo, priority 2006, dated 2008):
In brackets after ≈: the same amount, converted by molar mass. Read-outs that look alike come from different tables or passages of the source.

Columns and labels:
[1] = tested on: Pseudomonas aeruginosa (gfp expression PAO1-strain); test: Evaluation test for biofilm formation inhibition effect against Pseudomonas aeruginosa (flow cell system, fluorescence confocal microscope); format: cell-based; conditions: test liquid 100µM; observed up to 84 hours; compared with control test liquid (huge, thick biofilm)
Description: With the flow cell system shown in FIG. 1, an inhibitory effect against biofilm formation by Pseudomonas aeruginosa was evaluated for each of the amide compounds produced in Production Examples 1, 3, 5, 6 and 7 (Compounds 1a-1, 1b-1, 1c-1, 1c-2, 1d-1), and for each of Comparative Compounds (Comparative Example) 1 to 3 denoted by the following formulas. [drawing 20] [drawing 21] [drawing 22]
A culture medium bottle (1), a peristaltic pump (2), a glass cell (4) and a waste fluid bottle (5) are connected via a silicon tube (6) so that a culture medium (9) is supplied to the glass cell (4) from the culture medium bottle (1) using the peristaltic pump (2). The system includes an air removal section (3) between the peristaltic pump (2) and a turncock (7a), for removing the entrained air. All instruments in the flow cell system are sterilized using gamma-rays or an autoclave.
As specifically described later, the inhibitory effect against biofilm formation of each of the amide compounds is examined in the following manner.. Bacteria are cultured in a glass cell (4) to grow a biofilm on the inner wall of the cell, and a test liquid containing one of the amide compounds is applied to the biofilm. Then the state of the biofilm is observed to evaluate the inhibitory effect against biofilm formation of the compound using a fluorescence confocal microscope (Leica TCS SP2: product of Leica). […]

[2] = tested on: Porphyromonas gingivalis 381-strain (clinical strain); test: Evaluation test for biofilm formation inhibition effect against periodontitis pathogenic bacteria (flow cell system, HA disks, turbidity); format: cell-based; conditions: Porphyromonas gingivalis, 336 h; 100µM; 14 days; relative to control test liquid (Mean Comparison OD Value); read-out: Biofilm Formation Inhibition Rate(%)
Description: As with Experiment Example 1, using the flow cell system of FIG. 1, an inhibitory effect against biofilm formation by periodontitis pathogenic bacteria was evaluated for each of the amide compounds produced in Production Examples 1, 3, 5, and 6 (Compounds 1a-1, 1b-1, 1c-1, 1c-2).
Periodontitis pathogenic bacteria Porphyromonas gingivalis 381-strain (clinical strain) was used..
A GAM culture medium containing hemin 5µg/L and menadione 1µg/L was used.
The 381-strain was inoculated in the GAM culture medium, and cultivated until stationary phase (OD550=1.8). Then the culture medium was diluted 20-fold by a fresh GAM culture medium containing the above-mentioned substances.
The test liquid was prepared by dissolving 100µM of each of the Compounds 1a-1, 1b-1, 1c-1, or 1c-2 according to Production Examples 1, 3, 5 and 6 and 100µM of Comparative Compounds 1 and 2 as comparative examples in dimethyl sulfoxide (DMSO), and supplying the resulting DMSO solutions to the above-mentioned bacterial suspensions so that the concentration of each compound becomes 0.1%(v/v).
A DMSO not containing the compound was used as a control test liquid.
The glass cell (4) of the flow cell system (see FIG. 1) was replaced with a stainless cell (3 x 7 x 120mm), and 10 hydroxyapatite (HA) disks (6mm in diameter, 1mm in thickness) were placed in the cell. The HA disks had been subjected to salivary treatment overnight. Each of the test liquids and control test liquids was circulated in the system at a flow rate of 8mL/min for 14 days, Note that the test liquids and the control test liquids were replaced with fresh liquids every two days.
After the cultivation, the HA disks were dipped in 300µL of sterile distilled water, and treated by supersonic wave for 30 minutes at 4°C, The biofilms formed in the HA disks were peeled off and suspended in distilled water. Then, 100µL of the suspension liquid was measured for the turbidity with an absorptiometer (C07500 colorimeter, product of Funakoshi) (measurement wavelength = 550 nm).
A mean OD was found based on the resulting OD values, excluding the minimum and maximum values, Also, a mean value of the turbidities for the Control Test Liquids was found in the same manner as the control mean OD value. A biofilm formation inhibition rate (Inhibition Rate) was found by the following formula. Biofilm Formation Inhibition Rate (%) = […] [formula]

[3] = tested on: Escherichia coli ATCC 25922; test: Evaluation test for disinfecting effect, broth dilution method CLSI(M7-A7)2006; format: cell-based; conditions: 37°C, 18 hours
From the text: (§1) The following test compounds were examined for the disinfecting activities against Pseudomonas aeruginosa, E.. Coli and staphylococcus aureus, according to a broth dilution method of "CLSI(M7-A7)2006" (Clinical and Laboratory Standards Institute, M7-A7, Methods for Dilution Antimicrobial Susceptibility Tests for Bacteria That Grow Aerobically; Approved Standard-Seventh Edition, 2006),
(§2) • Pseudomonas aeruginosa PAO1 • Pseudomonas aeruginosa ATCC 27853 • Escherichia coli ATCC 25922 • Staphylococcus aureus ATCC 29213 • Staphylococcus aureus Methicillin resistant (MRSA) ATCC 43300
(§3) Each of above-mentioned bacteria was inoculated in a TSB culture medium (Bacto TSB Broth, product of BD) for overnight cultivation at 37°C. The culture solution was applied to a TSB agar plate for about a 20-hour cultivation to form colonies. Three to five colonies were taken from the agar plate, and an average colony of them was inoculated in a 4mL TSB culture medium.. The colony was cultivated at 35°C until the number of microorganisms became 1 × 10^8 to 2 x 10^8 CFU/mL. The number of microorganisms with time was found by measuring changes in absorbency at 590nm of culture solution with time. When the turbidity became equivalent to 0.5 McFarland standard, it was determined that the number of microorganisms reached the target level = 1 × 10^8 to 2 × 10^8 CFU/mL.
(§4) The bacillus culture solution thus obtained was diluted 10-fold within 15 minutes, and a 5µL portion was inoculated in each well of an evaluation 96-well microplate. This 96-well microplate was a sterilized 96-well microplate with U-shaped bottoms (Falcon 35-3918: product of BD), and each well was filled with a 100µL portion of MH culture medium (BBL MH Broth: product of BD). Within 15 minutes after inoculation of the bacillus culture solutions, the test compounds were supplied to the well in a manner of 2-fold graded dilution. The cultivation was then carried out at 37°C for 18 hours.
(§5) The MIC was determined as follows. "S (susceptible)" indicates a concentration which caused 80% or more reduction in the diameter of the aggregation deposited in the bottom of the well, compared to when the test liquid is not used. "R (Resistant)" indicates a concentration that caused less than 80% reduction in diameter. The reduction was measured visually.. "I(Intermediate)" indicates a concentration that cannot be measured visually

[4] = tested on: Pseudomonas aeruginosa ATCC 27853; test: as above; format: cell-based; conditions: 37°C, 18 hours
From the text: as §1, §2, §3, §4, §5

[5] = tested on: Pseudomonas aeruginosa PAO1; test: as above; format: cell-based; conditions: 37°C, 18 hours
From the text: as §1, §2, §3, §4, §5

[6] = tested on: Staphylococcus aureus ATCC 29213; test: as above; format: cell-based; conditions: 37°C, 18 hours
From the text: as §1, §2, §3, §4, §5

[7] = tested on: Staphylococcus aureus Methicillin resistant (MRSA) ATCC 43300; test: as above; format: cell-based; conditions: 37°C, 18 hours
From the text: as §1, §2, §3, §4, §5

[8] = tested on: Pseudomonas aeruginosa ATCC 27853; conditions: Publicly-known data, CLSI(M100-S16)2006 liquid dilution method; cited from earlier work
[9] = tested on: Escherichia coli ATCC 25922; conditions: Publicly-known data, CLSI(M100-S16)2006 liquid dilution method; cited from earlier work
[10] = tested on: Staphylococcus aureus ATCC 29213; conditions: Publicly-known data, CLSI(M100-S16)2006 liquid dilution method; cited from earlier work
[11] = ATCC25922, I (Intermediate): concentration that cannot be measured visually, read-out: MIC (µg/mL) I
[12] = ATCC25922, R (Resistant): concentration that caused less than 80% reduction in diameter of the aggregation, read-out: MIC (µg/mL) R
[13] = ATCC25922, S (susceptible): concentration which caused 80% or more reduction in diameter of the aggregation, read-out: MIC (µg/mL) S
[14] = ATCC27853, I (Intermediate): concentration that cannot be measured visually, read-out: MIC (µg/mL) I
[15] = ATCC27853, R (Resistant): concentration that caused less than 80% reduction in diameter of the aggregation, read-out: MIC (µg/mL) R
[16] = ATCC27853, S (susceptible): concentration which caused 80% or more reduction in diameter of the aggregation, read-out: MIC (µg/mL) S
[17] = PAO1, I (Intermediate): concentration that cannot be measured visually, read-out: MIC (µg/mL) I
[18] = PAO1, R (Resistant): concentration that caused less than 80% reduction in diameter of the aggregation, read-out: MIC (µg/mL) R
[19] = PAO1, S (susceptible): concentration which caused 80% or more reduction in diameter of the aggregation, read-out: MIC (µg/mL) S
[20] = ATCC29213, I (Intermediate): concentration that cannot be measured visually, read-out: MIC (µg/mL) I
[21] = ATCC29213, R (Resistant): concentration that caused less than 80% reduction in diameter of the aggregation, read-out: MIC (µg/mL) R
[22] = ATCC29213, S (susceptible): concentration which caused 80% or more reduction in diameter of the aggregation, read-out: MIC (µg/mL) S
[23] = I (Intermediate): concentration that cannot be measured visually, read-out: MIC (µg/mL) I
[24] = R (Resistant): concentration that caused less than 80% reduction in diameter of the aggregation, read-out: MIC (µg/mL) R
[25] = S (susceptible): concentration which caused 80% or more reduction in diameter of the aggregation, read-out: MIC (µg/mL) S

| MIC [3, 11] | MIC [3, 12] | MIC [3, 13] | MIC [4, 14] | MIC [4, 15] | MIC [4, 16] | MIC [5, 17] | MIC [5, 18] | MIC [5, 19] | MIC [6, 20] | MIC [6, 21] | MIC [6, 22] | MIC [7, 23] | MIC [7, 24] | MIC [7, 25] | Compound | state of biofilm formation [1] | inhibition at 100 µM [2] | MIC (µg/mL) from M100-S16 [8] | MIC (µg/mL) from M100-S16 [9] | MIC (µg/mL) from M100-S16 [10] |
| --- | --- | --- | --- | --- | --- | --- | --- | --- | --- | --- | --- | --- | --- | --- | --- | --- | --- | --- | --- | --- |
| – | – | – | – | – | – | – | – | – | – | – | – | – | – | – | CCCCCCCCCC(=O)CC(=O)Nc1ccccc1O [Comparative Compound 1] | the huge, thick biofilm was observed as in the control test | -36% | – | – | – |
| 0.5 µg/mL (≈ 1.07 µM) | ≤ 0.25 µg/mL | ≥ 1 µg/mL | 0.5 µg/mL (≈ 1.07 µM) | ≤ 0.25 µg/mL | ≥ 1 µg/mL | 0.5 µg/mL (≈ 1.07 µM) | ≤ 0.25 µg/mL | > 1 µg/mL | 0.25 µg/mL (≈ 0.535 µM) | ≤ 0.125 µg/mL | ≥ 0.5 µg/mL | 128 µg/mL (≈ 274 µM) | ≤ 64 µg/mL | ≥ 256 µg/mL | NC[C@H]1O[C@H](O[C@H]2[C@H](O)[C@@H](O[C@H]3O[C@H](CO)[C@@H](O)[C@H](N)[C@H]3O)[C@H](N)C[C@@H]2N)[C@H](N)C[C@@H]1O [TOB, Tobramycin] | – | – | 0.25 to 1 µg/mL | 0.25 to 1 µg/mL | 0.12 to 1 µg/mL |
| – | – | – | – | – | – | – | – | – | – | – | – | – | – | – | CCCCCCCCCCCC(=O)NN1CCCCC1 [Compound 1d-1, N-(piperidin-1-yl) dodecanoyl amide] | such biofilm formation was not observed | – | – | – | – |
| 0.125 µg/mL (≈ 0.229 µM) | ≤ 0.063 µg/mL | ≥ 0.25 µg/mL | 2 µg/mL (≈ 3.66 µM) | ≤ 1 µg/mL | ≥ 4 µg/mL | 1 µg/mL (≈ 1.83 µM) | ≤ 0.5 µg/mL | ≥ 2 µg/mL | 4 µg/mL (≈ 7.32 µM) | ≤ 2 µg/mL | ≥ 8 µg/mL | 8 µg/mL (≈ 14.6 µM) | ≤ 4 µg/mL | ≥ 16 µg/mL | CC(C)(O/N=C(\C(=O)N[C@@H]1C(=O)N2C(C(=O)[O-])=C(C[n+]3ccccc3)CS[C@H]12)c1csc(N)n1)C(=O)O [CAZ, Ceftazidime] | – | – | 1 to 4 µg/mL | 0.06 to 0.5 µg/mL | 4 to 16 µg/mL |
